Assay results as given in patent US12209111B2, “Targeting P18 for mTOR-related disorders” (WESTERN UNIVERSITY OF HEALTH SCIENCES, priority 2018, dated 2025).
Entries after “also recorded” stand apart in the source; their conditions may differ. Where a SMILES comes first, the peptide text is derived from it. The star is where a group is joined. Cbz = O=C(OCc1ccccc1)*

Assays:
p18 [1] = assay: Cultured hippocampal neurons treated with MG132 or BafA, p18 immunofluorescence; assay type: cell-based, mouse; settings: 4 h
p18 [2] = assay: Acute hippocampal slices treated with proteasome or lysosome inhibitor, p18 Western blot; assay type: cell-based, mouse; settings: 30 min
Experimental: Acute Hippocampal Slice Preparation. Adult male mice (2-4-month-old) were anesthetized with gaseous isoflurane and decapitated. Brains were quickly removed and transferred to oxygenated, ice-cold cutting medium (in mM): 124 NaCl, 26 NaHCO3, 10 glucose, 3 KCl, 1.25 KH2PO4, 5 MgSO4, and 3.4 CaCl2. Hippocampal transversal slices (400 μm-thick) were prepared using a McIlwain-type tissue chopper and transferred to i) an interface recording chamber and exposed to a warm, humidified atmosphere of 95% O2/5% CO2 and continuously perfused with oxygenated and preheated (33±0.5° C.) artificial cerebrospinal fluid (aCSF) (in mM) [110 NaCl, 5 KCl, 2.5 CaCl2, 1.5 MgSO4, 1.24 KH2PO4, 10 D-glucose, 27.4 NaHCO3], perfused at 1.4 ml/min (electrophysiology); or ii) a recovery chamber with a modified aCSF medium, containing (in mM): 124 NaCl, 2.5 KCl, 2.5 CaCl2, 1.5 MgSO4, 1.25 NaH2PO4, 24 NaHCO3, 10 D-glucose, and saturated with 95% O2/5% CO2 for 1 h at 37° C. (biochemical assays).
To determine whether Ube3a-mediated regulation of p18 was proteasome- and/or lysosome-dependent, acute hippocampal slices from WT and AS mice were treated with either a proteasome inhibitor, MG132 (10 μM), or a lysosome inhibitor, the vacuolar H+-ATPase (V-ATPase) inhibitor, bafilomycin A1 (BafA, 100 nM), for 30 min.

mTOR = target: T1, mTOR (Mus musculus, UniProt Q9JLN9); assay: MHY1485 treatment of hippocampal slices from p18 siRNA-injected WT mice (LTP, Western blot); assay type: cell-based; settings: 2 μM, 60 min pre-incubation, to levels of control siRNA-injected WT mice
T1 construct: Pre-incubation of hippocampal slices with MHY1485 (2 μM) for 60 min reestablished TBS-elicited LTP; from tissue; host or cells: acute hippocampal slices from AAV p18 siRNA- or control siRNA-injected WT mice
Experimental: Electrophysiology. After 1.5 h incubation at 33±0.5° C. in the recording chamber, a single glass pipette filled with 2 M NaCl was used to record field EPSPs (fEPSPs) elicited by stimulation of the Schaffer collateral pathway with twisted nichrome wires (single bare wire diameter, 50 μm) placed in CA1 stratum radiatum. Stimulation pulses were generated using a Multichannel Systems Model STG4002 Stimulator (Reutlingen, Germany). Responses were recorded through a differential amplifier (DAM 50, World Precision Instruments, USA) with a […]. Before each experiment, the input/output (I/O) relation was examined by varying the intensity of the stimulation. Paired-pulse facilitation was tested at 20-300 ms interval. Long-term potentiation (LTP) was induced using theta burst stimulation (10 bursts at 5 Hz, each burst consisting of 4 pulses at 100 Hz, with a pulse duration of 0.2 ms). For LTP and paired-pulse facilitation experiments, the stimulation intensity was regulated to a current which elicited a 40% of maximal response. Data were collected and digitized by Clampex, and the slope of fEPSP was analyzed. […] All data are expressed as means±SEM, and statistical significance of differences between means was calculated with appropriate statistical tests as indicated in figure legends.

Hela cell [3] = assay: Lysosome positioning in Hela cells (Lysotracker live imaging); assay type: cell-based; settings: for lysosome distribution to the peripheral region of the cell: before and 30 min after treatment (FIG. 20B)
Experimental: (§1) (A) Amino acid sequence of human p18 (SEQ ID NO: 23). G2 is a myristoylation site. C3 and C4 are palmitoylation sites. K20, K31, K60, K103, K104, and K151 (red) are potential ubiquitination sites. Two short peptides around K20/31 and K151 (underlined) were respectively conjugated to the cell membrane transduction domain of HIV-1 Tat protein (TAT-2031 and TAT-151). […] Hela cells were stained with Lysotracker (red) and imaged live. Top panel, representative images of Lysotracker before and 30 min after TAT-2031 treatment are shown. Bottom panel, graph represents the distribution of lysosomes relative to the MTOC, normalized to the distance between the MTOC and the cell periphery. (C) Hela cells were incubated with TAT or TAT-2031 (2 μM) for 42 hr. Representative blots and quantification of p18, p-mTOR/mTOR, p-S6K1/S6K1, and p-S6/S6 in whole cell lysates are shown. N=2 independent experiments.
(§2) Example 9: Short peptides targeting p18 reduced mTOR activation and promoted peripheral positioning of lysosomes in HELA cells. To test whether blocking p18 ubiquitination and interruption of its interaction with other proteins could disrupt mTOR signaling and lysosome localization and function, we designed two small decoy peptides (TAT-2031 and TAT-151) targeting different domains of p18 containing lysine residues (FIG. 20A); these peptides are conjugated to the cell membrane transduction domain of HIV-1 Tat protein. […] SEQ ID NO:19 corresponds to […], residues 20-31 of p18.

mTOR signaling pathway = assay: mTOR signaling in Hela cells treated with p18 short peptides, Western blot; assay type: cell-based; settings: for mTORC1 activation: Hela cells (FIG. 20C); for Effects: mTOR signaling pathway: Hela cells, TAT or TAT-2031 2 μM for 42 hr, ratios p-mTOR/mTOR, p-S6K1/S6K1, p-S6/S6
Experimental: as §1, §2

p18-TRPML1 interaction = p18-TRPML1 interaction (Homo sapiens, UniProt Q6IAA8); assay: p18-TRPML1 interaction
Chain of p18-TRPML1 interaction (Q9GZU1 whole entry partner): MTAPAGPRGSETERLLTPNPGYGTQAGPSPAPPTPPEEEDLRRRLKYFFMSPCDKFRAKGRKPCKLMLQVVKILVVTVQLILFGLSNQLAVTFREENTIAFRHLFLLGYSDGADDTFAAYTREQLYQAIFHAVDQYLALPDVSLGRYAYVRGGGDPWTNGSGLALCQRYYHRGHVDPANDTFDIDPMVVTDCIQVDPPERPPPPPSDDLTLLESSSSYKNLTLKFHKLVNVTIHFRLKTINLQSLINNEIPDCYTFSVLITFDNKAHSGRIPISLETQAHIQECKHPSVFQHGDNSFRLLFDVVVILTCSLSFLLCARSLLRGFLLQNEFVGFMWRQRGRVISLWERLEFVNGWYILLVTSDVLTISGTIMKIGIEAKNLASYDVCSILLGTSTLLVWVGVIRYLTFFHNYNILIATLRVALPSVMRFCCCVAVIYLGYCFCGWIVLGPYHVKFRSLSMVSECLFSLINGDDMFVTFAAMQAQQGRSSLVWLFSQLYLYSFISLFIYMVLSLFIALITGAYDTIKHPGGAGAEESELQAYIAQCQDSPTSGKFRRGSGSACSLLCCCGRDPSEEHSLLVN
Chain of p18-TRPML1 interaction (Q6IAA8 whole entry): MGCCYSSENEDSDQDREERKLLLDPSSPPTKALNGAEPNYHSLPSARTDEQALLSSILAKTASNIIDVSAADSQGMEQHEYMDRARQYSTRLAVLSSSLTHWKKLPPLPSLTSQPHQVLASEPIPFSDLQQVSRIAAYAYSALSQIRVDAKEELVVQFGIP
Text: as §2

Hela cell [4] = assay: Migration of Hela cell; assay type: cell-based

Compound: CO/C1=C\C(C)=C\[C@@H](C)[C@@H](O)[C@@H](C)C/C(C)=C/C=C/[C@H](OC)[C@@H]([C@@H](C)[C@@H](O)[C@H](C)[C@@]2(O)C[C@@H](O)[C@H](C)[C@@H](C(C)C)O2)OC1=O [BafA, bafilomycin A1]
- p18 intensity (p18 [1]; cultured hippocampal neurons from both WT and AS mice, 100 nM): only slightly increased

Compound: CC(C)C[C@@H](C=O)NC(=O)[C@H](CC(C)C)NC(=O)[C@H](CC(C)C)NC(=O)OCc1ccccc1 [MG132] (Cbz-Leu-Leu-Leu-aldehyde)
- p18 intensity (p18 [1]; cultured hippocampal neurons from WT mice, 10 μM): markedly increased
- p18 levels in AS slices (p18 [2]; acute hippocampal slices from AS mice, MG132 10 μM): marginally
- p18 levels in WT slices (p18 [2]; acute hippocampal slices from WT mice, MG132 10 μM or BafA 100 nM): significantly increased

Compound: O=[N+]([O-])c1ccc(Nc2nc(N3CCOCC3)nc(N3CCOCC3)n2)cc1 [MHY1485]
- TBS-elicited LTP (mTOR): reestablished

Compound: TAT-151: Short p18 peptide around K151 conjugated to HIV-1 Tat transduction domain: YGRKKRRQRRRKEELVV
- lysosome distribution to the peripheral region of the cell (Hela cell [3]): not
- mTORC1 activation (mTOR signaling pathway): not
- Effects: mTOR signaling pathway (mTOR signaling pathway): Little

Compound: TAT-2031: p18 residues 20-31 (KLLLDPSSPPTK) conjugated to HIV-1 Tat transduction domain: YGRKKRRQRRRKLLLDPSSPPTK
- lysosome distribution to the peripheral region of the cell (Hela cell [3]): increased; also recorded: shifted the distribution of lysosomes toward the cell periphery
- lysosome distribution to the peripheral region of the cell (Hela cell [3]; listed as short decoy peptide around K20/31): increased
- Effects: p18-TRPML1 interaction (p18-TRPML1 interaction): Reduced the
- mTORC1 activation (mTOR signaling pathway): significantly reduced
- Effects: Migration of Hela cell (Hela cell [4]): Slightly reduced

Compound: TAT: Cell membrane transduction domain of HIV-1 Tat protein, YGRKKRRQRRR; control peptide [reference compound]
- Effects: Lysosome positioning in Hela cell (Hela cell [3]): No
- Effects: p18-TRPML1 interaction (p18-TRPML1 interaction): No
- Effects: mTOR signaling pathway (mTOR signaling pathway): No
- Effects: Migration of Hela cell (Hela cell [4]): No
